Where “and” joins values, the source holds several entries; their conditions need not be identical. Equal entries are not always repeated.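 Exposure lasted 48 hours, with cells grown in 96-well plates and compounds tested at five concentrations. Abbreviation: GI50, concentration required for 50% inhibition of growth. TGI: total growth inhibition.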
Columns and labels:
Test in all cases: NCI-60 cell line screen, 48 h
ACHN renal = system: ACHN renal
SR leukemia = system: SR leukemia
SF-539 CNS = system: SF-539 CNS
HOP-92 NSCLC = system: HOP-92 NSCLC
SK-MEL-2 melanoma = system: SK-MEL-2 melanoma
CCRF-CEM leukemia = system: CCRF-CEM leukemia
OVCAR-5 ovarian = system: OVCAR-5 ovarian
RXF 393 renal = system: RXF 393 renal
HS 578T breast = system: HS 578T breast
SK-MEL-28 melanoma = system: SK-MEL-28 melanoma

SMILES	TGI (ACHN renal) [µM]	TGI (SR leukemia) [µM]	TGI (SF-539 CNS) [µM]	TGI (HOP-92 NSCLC) [µM]	TGI (SK-MEL-2 melanoma) [µM]	TGI (CCRF-CEM leukemia) [µM]	TGI (OVCAR-5 ovarian)	TGI (RXF 393 renal) [µM]	TGI (HS 578T breast) [µM]	TGI (SK-MEL-28 melanoma)	GI50 (SR leukemia) [µM]	GI50 (ACHN renal) [µM]	GI50 (SF-539 CNS) [µM]	GI50 (HS 578T breast) [µM]	GI50 (HOP-92 NSCLC) [µM]	GI50 (SK-MEL-2 melanoma) [µM]	GI50 (OVCAR-5 ovarian) [µM]	GI50 (SK-MEL-28 melanoma) [µM]	GI50 (RXF 393 renal) [µM]	GI50 (CCRF-CEM leukemia) [µM]
O=c1oc2ccccc2c(O)c1C(C/C(CCN1CCCC1)=N\Nc1ccccc1)c1ccccc1 (stereo unspecified)	> 100	75.1	> 100	83.6	> 100	69.5	> 100 µM	93												
C=C(c1ccccc1)c1ccccc1-c1cc(-c2ccccc2)cc(-c2ccccc2)n1	> 100	> 100	> 100	> 100		> 100	> 100 µM	> 100	> 100	> 100 µM										
COC(=O)C(NC(=O)c1ccccc1)C(c1ccc(Cl)cc1)P(=O)(OC)OC (stereo unspecified)	> 100	> 100	> 100	> 100	> 100	> 100	> 100 µM	> 100		> 100 µM										
COC(=O)C1=C(C(=O)OC)SC2(S1)C(C(=O)OC)=C(C(=O)OC)Sc1c2ssc1=NC(C)(C)C	3.35	1.91	2.69	2.76	2.82		3.68 µM	1.96	18.5	5.02 µM										
Brc1ccc2c(-c3csc(-c4c[nH]c5ccccc45)n3)c[nH]c2c1	32.1	21.7	30.8	33.3		38.1	32.7 µM	38.8		31 µM	6.36									
CC1=C(C)C(=O)C(C2=CC(=O)C=CC2=O)=C(C2=CC(=O)C=CC2=O)C1=O	> 100		51.7	> 78.9	> 100	> 100	> 100 µM	> 100	> 100	> 100 µM										
COc1cc(Br)c(CC2C3=C(CCN2C(=O)C2CCC2)CC(=O)CC3)cc1O (stereo unspecified)	86.9	> 100	> 100	53.6	> 100	87.6	> 100 µM		85.5	> 100 µM										
O=c1ccc2nc(-c3ccccn3)nn(-c3ccccc3)c-2c1	2.99	> 100	19.8	2.42	8.68		18.1 µM	3.01	35.9	3.24 µM	2.31	1.59	6.93	2.85	1.15	2.96	4.99	1.69	1.6	
O=C(O)Cn1cc([N+](=O)[O-])c(=O)c2ccccc21	> 100	> 100	> 100		> 100	> 100	> 100 µM		> 100	> 100 µM										
O=[N+]([O-])C(Cl)=C/C(=C(\Cl)SCc1ccccc1)[N+](=O)[O-]	32.2		45	36.1	76.5	18	52.4 µM	26.3	> 100	59.7 µM										
O=c1[nH]c(=S)c2cc3c(=S)[nH]c(=O)n(CCO)c3nc2n1CCO	> 100	> 100	> 100	> 100	> 100	> 100	> 100 µM	> 100		> 100 µM										
COC(=O)c1c(O)ccc2c1c1c(n2Cc2ccccc2)C(=O)c2ccccc2C1		37.5	> 100		> 100	65.8		60	> 100	> 100 µM										
CCOC(=O)c1c(-c2cccc3ccccc23)c(C#N)c(=S)n(C2OC(COC(C)=O)C(OC(C)=O)C(OC(C)=O)C2OC(C)=O)c1C (stereo unspecified)	> 100	> 100	> 100	> 100	> 100	> 100	> 100 µM	> 100		> 100 µM										
O=c1c2ccccc2nc(N/N=C/c2ccccc2O)n1-c1ccccc1	> 100		> 100	81.3	> 100	> 100	> 100 µM	> 100	39.5	> 100 µM										
[N-]=[N+]=C(C(=O)N1CCCC1=O)S(=O)(=O)c1ccccc1	> 100	> 100	> 100		> 100	> 100		> 100	> 100	> 100 µM										
N#CC(C#N)=C1C(=O)NC(N)=C1C#N	> 100			> 100	> 100	> 100	> 100 µM	> 100	> 100	> 100 µM										
Cc1nc2ccccc2c(/C=C/c2ccc(Cl)cc2)c1C(=O)/C=C/c1ccccc1	2.86		3.11			> 100	3.39 µM	2.98		3.22 µM		1.53	1.7				1.83	1.74	1.6	1.32
C/C=C(/C)C(=O)O[C@H]1[C@H](O)CC(c2ccc3c(c2O)C(O)=C2C(=O)C4(OC)C(O)=C(C(N)=O)C(=O)[C@H](CC(=O)c5ccccc5O)C4CC2[C@@]3(C)OC)O[C@@H]1C (stereo partly specified)	3.96	0.355	0.101	0.625	0.0696		2.02 µM and 0.916 µM			2.56 µM and 2.45 µM								1.06		
CCN1CCC(O)(/C=C/c2ccc(OC)cc2)C(C(=O)/C=C/c2ccc(OC)cc2)C1 (stereo unspecified)	26.6	26.4	27.8	21.3		5.76	28.8 µM	11.9		24.4 µM										
O=c1ccc2ccc(O)cc2o1	> 100		> 100	> 100	> 100	> 100	> 100 µM	> 100	> 100	> 100 µM										
COc1ccc2c(c1)OC[C@@H]1c3cc(O)c(OCc4ccccc4)cc3O[C@H]21	> 100		> 100	61.7	60.8	> 100	> 100 µM	93.2		> 100 µM										
CC(=O)c1c2n(n(-c3ccccc3)c1=O)C(=O)c1nccnc1-2	> 100	> 100	> 100	> 100	> 100		> 100 µM	> 100	> 100	> 100 µM										
